These results are taken from patent publication US8258116B2, “Combination therapy for the treatment of HCV infection” (Vertex Pharmaceuticals Incorporated, priority 2007, dated 2012).

In assay [1] the test system is HCV replicon Wild Type (mADE). Put plainly: 2-Day HCV Replicon IC50 Assay, wild type replicon. It is filed as cell-based. Here is the method: (§1) Huh-7 cells were propagated in Dulbecco's modified Eagle's medium (DMEM, JRH Biosciences, Lenexa, Kans.) supplemented with 10% heat-inactivated FBS (fetal bovine serum), 2 mM L-glutamine, and nonessential amino acids (JRH). The cells were transfected with an in vitro transcribed HCV replicon RNA identical to replicon 1377neo/NS3-3′/wt as described by Lohmann et al. (1999). Stable cell clones were selected and maintained in the presence of 250 μg/mL G418 (Invitrogen, Carlsbad, Calif.). […] The HCV NS3 protease variant replicons were constructed in the background of the mADE wild-type replicon as described previously [Chao Lin et al., “In Vitro Resistance Studies of Hepatitis C Virus Serine Protease Inhibitors, VX-950 and BILN 2061: Structural Analysis Indicates Different Resistance Mechanisms,” Journal of Biological Chemistry, 279(17); pp. 17508-17514 (2004)]. The replicon cells were propagated in DMEM supplemented with 10% FBS, 2 mM L-glutamine, nonessential amino acids, and 250 μg/mL G418. The cells were split twice per week in fresh media upon reaching confluence. There are approximately 200-300 copies of HCV RNA per 24-2 replicon cell.
(§2) HCV replicon RNA from cells was measured using the Quantigene Discover XL kit (Panomics Inc., Fremont Calif.) as per the manufacturer's instructions. Briefly, compound-treated replicon cells were lysed and immobilized on to capture plates using HCV specific oligonucleotides (designed based on the 5′ UTR region of HCV 1b genome sequence AJ238799 in the GenBank database) over night and the relative amounts of captured RNA was measured using oligonucleotide probe sets as per the manufacturer's instructions.
(§3) On the day prior to the assay, 10,000 replicon cells were plated per well of a 96-well plate and allowed to attach and grow overnight in DMEM (Invitrogen, Carlsbad, Calif.) supplemented with 10% heat-inactivated FBS (JRH Biosciences, Lenexa, Kans.), 2 mM L-glutamine (Invitrogen), nonessential amino acids (Invitrogen) and 250 μg/ml G418 (Invitrogen). Next day, the medium was removed and antiviral agents that were serially diluted in DMEM containing 2% FBS and 0.5% DMSO (Sigma Chemical Co., St. Louis, Mo.) without G418, was added. The replicon cells were incubated with the antiviral agents for 48 h. HCV replicon RNA from cells was measured using the Quantigene Discover XL kit (Panomics Inc., Fremont Calif.) as per the manufacturer's instructions. Briefly, compound-treated replicon cells were lysed and immobilized onto capture plates using HCV specific oligonucleotides overnight and the relative amounts of captured RNA was measured using oligonucleotide probe sets as per the manufacturer's instructions. Unless indicated otherwise, each data point represents the average of three replicates. The IC50 is the concentration of the compound at which the HCV replicon RNA level in cells is reduced by 50% as compared to the untreated replicon cell controls. To monitor the effect of compounds on cell proliferation or cell viability, replicon cells were treated with serially diluted compounds for 48 h, after which cell viability was determined using a CellTiter Glo assay (Promega, Madison, Wis.). Each CC50 is derived from at least two replicates and is the concentration of the compound at which the number of viable cells is reduced by 50% as compared to untreated cell controls. The IC50 and CC50 was determined using 4-parameter curve fitting in the SoftMax Pro program (Molecular Devices, Sunnyvale, Calif.).
(§4) The sensitivity of NS3 protease variants to ribavirin and interferon was assessed in a 2-Day HCV Replicon IC50 Assay.
Background: A replicon is a self-replicating genome or part of one, used to study replication in cells.

The test system of assay [2] is HCV NS3 protease variant replicon R155K. Put plainly: microbe, parasite or virus in culture. It is filed as cell-based. Here is the method: as §1, §2, §3, §4
For assay [3], the system named is HCV NS3 protease variant replicon R155M. Put plainly: microbe, parasite or virus in culture. It is filed as cell-based. Here is the method:
as §1, §2, §3, §4

The test system of assay [4] is HCV NS3 protease variant replicon R155T. Put plainly: microbe, parasite or virus in culture. It is filed as cell-based. On the procedure:
as §1, §2, §3, §4

The subject of assay [5] is HCV NS3 protease variant replicon T54A. Put plainly: microbe, parasite or virus in culture. It is filed as cell-based. On the procedure: as §1, §2, §3, §4
For assay [6], the system named is HCV NS3 protease variant replicon V36A-R155K. Put plainly: microbe, parasite or virus in culture. It is filed as cell-based. On the procedure:
as §1, §2, §3, §4

The test system of assay [7] is HCV NS3 protease variant replicon V36A-R155T. Put plainly: microbe, parasite or virus in culture. It is filed as cell-based. On the procedure:
as §1, §2, §3, §4

In assay [8] the test system is HCV NS3 protease variant replicon V36A. Put plainly: microbe, parasite or virus in culture. It is filed as cell-based. On the procedure: as §1, §2, §3, §4
The subject of assay [9] is HCV NS3 protease variant replicon V36M+R155K. Put plainly: microbe, parasite or virus in culture. It is filed as cell-based. On the procedure: as §1, §2, §3, §4
In assay [10] the test system is HCV NS3 protease variant replicon V36M-R155T. Put plainly: microbe, parasite or virus in culture. It is filed as cell-based. On the procedure:
as §1, §2, §3, §4

For assay [11], the system named is HCV NS3 protease variant replicon V36M. Put plainly: microbe, parasite or virus in culture. It is filed as cell-based. Here is the method: as §1, §2, §3, §4
For assay [12], the system named is HCV NS3 protease variant replicon A156T. The settings on record: A156T replicon versus wild-type (Lin et al., 2005); cited from earlier work.
The subject of assay [13] is HCV NS3 protease variant replicon A156V. The settings on record: A156V replicon versus wild-type (Lin et al., 2005); cited from earlier work.

Take IFN-α: the “Avg. IC50” value in assay [1] (IFN-α, Wild Type (mADE) replicon) worked out at 11.6 ± 1.1 units/ml; in assay [2] (IFN-α, R155K replicon) it was 15.2 ± 12.3 units/ml; in assay [3] (IFN-α, R155M replicon), 4.9 ± 1.0 units/ml; in assay [4] (IFN-α, R155T replicon), 4.8 ± 3.3 units/ml; in assay [5] (IFN-α, T54A replicon), 3.9 ± 0.5 units/ml; in assay [6] (IFN-α, V36A-R155K replicon), 6.8 ± 0.5 units/ml. Also, the “Avg. IC50” value in assay [7] (IFN-α, V36A-R155T replicon) is given as 3.9 ± 2.1 units/ml; in assay [8] (IFN-α, V36A replicon), 10.3 ± 6.0 units/ml; in assay [9] (IFN-α, V36M-R155K replicon), 10.1 ± 5.9 units/ml; in [10] (IFN-α, V36M-R155T replicon) it was 3.1 ± 0.2 units/ml; in assay [11] (IFN-α, V36M replicon), 11.3 ± 5.9 units/ml. In addition, the “Fold Change” value in assay [1] (Wild Type replicon, ratio of IC50 to Wild type IC50 for the same inhibitor) turned out to be 1.0; in [2] (R155K, ratio of mutant IC50 to Wild type IC50 for the same inhibitor), 1.3; in assay [3] (R155M, ratio of mutant IC50 to Wild type IC50 for the same inhibitor) it was 0.4; in assay [4] (R155T, ratio of mutant IC50 to Wild type IC50 for the same inhibitor) it was 0.4; in [5] (T54A, ratio of mutant IC50 to Wild type IC50 for the same inhibitor), 0.3; in assay [6] (V36A-R155K, ratio of mutant IC50 to Wild type IC50 for the same inhibitor) it was 0.6. Also, the “Fold Change” value in assay [7] (V36A-R155T, ratio of mutant IC50 to Wild type IC50 for the same inhibitor) is 0.3; in assay [8] (V36A, ratio of mutant IC50 to Wild type IC50 for the same inhibitor), 0.9; in assay [9] (V36M-R155K, ratio of mutant IC50 to Wild type IC50 for the same inhibitor), 0.9; in assay [10] (V36M-R155T, ratio of mutant IC50 to Wild type IC50 for the same inhibitor), 0.3; in [11] (V36M, ratio of mutant IC50 to Wild type IC50 for the same inhibitor) it was 1.0. For the same substance, the sensitivity of replicon result in assay [12] and in [13] was “comparable to the wild-type” throughout.
